Biological target: OR10/OR7 (Anopheles gambiae, UniProt B5U0U7+Q7QCC7)
Test: Ca2+-imaging of stable HEK293T cell line OR10/OR7
Type: cell-based
Settings: for inhibition at 4 µM: HEK-293T, compound applied at 4 μM, read-out: Percent Inhibition OR10 OR7; for IC50: Table B, read-out: IC50 OR10
Method in brief: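 Stable HEK293T line co-expressing OR10/OR7, plated 2 days on poly-D-lysine, loaded with Ca-4 dye 1.5 hr at room temperature. Compounds premixed into odorant in HBSS and applied on FDSS6000. Ca2+ rise followed by fluorescence at 525 nm (excitation 485 nm).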

Sequence of OR10/OR7 (Q7QCC7 whole entry): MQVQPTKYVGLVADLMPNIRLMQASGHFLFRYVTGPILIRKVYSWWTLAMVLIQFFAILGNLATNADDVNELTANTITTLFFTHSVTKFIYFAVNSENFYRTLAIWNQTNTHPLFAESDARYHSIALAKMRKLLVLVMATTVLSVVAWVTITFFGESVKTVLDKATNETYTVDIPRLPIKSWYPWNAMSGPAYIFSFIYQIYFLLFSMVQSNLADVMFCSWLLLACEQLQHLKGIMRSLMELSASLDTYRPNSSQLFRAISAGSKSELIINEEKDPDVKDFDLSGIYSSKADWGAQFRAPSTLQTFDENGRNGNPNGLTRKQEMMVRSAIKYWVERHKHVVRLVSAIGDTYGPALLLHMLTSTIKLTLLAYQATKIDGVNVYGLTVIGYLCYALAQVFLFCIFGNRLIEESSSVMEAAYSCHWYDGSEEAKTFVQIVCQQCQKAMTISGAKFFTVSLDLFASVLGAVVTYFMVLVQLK
Sequence of OR10/OR7 (B5U0U7 entry or part of it): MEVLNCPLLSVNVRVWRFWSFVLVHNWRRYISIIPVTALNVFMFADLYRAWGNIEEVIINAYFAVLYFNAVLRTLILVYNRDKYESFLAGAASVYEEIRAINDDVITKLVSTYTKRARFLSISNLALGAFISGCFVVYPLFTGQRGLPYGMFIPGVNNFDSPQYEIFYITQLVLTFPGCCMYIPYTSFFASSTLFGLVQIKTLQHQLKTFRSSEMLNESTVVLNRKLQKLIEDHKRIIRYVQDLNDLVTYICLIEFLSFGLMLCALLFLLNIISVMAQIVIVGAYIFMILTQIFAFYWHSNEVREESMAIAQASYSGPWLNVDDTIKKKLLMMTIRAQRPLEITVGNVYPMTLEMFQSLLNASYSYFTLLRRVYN

| SMILES | inhibition at 4 µM [%] | IC50 [µM] |
| --- | --- | --- |
| Cc1ccc(CN(Cc2ccc(F)cc2)C(=O)CN(C(=O)NC(C)(C)C)C2CC2)s1 [RU-0052360] | > 75 | > 1 |
| CCOCCCN(CC(=O)N(Cc1ccc2c(c1)OCO2)Cc1sccc1C)C(=O)NC(C)(C)C [RU-0052340] | 51 to 74 | < 0.1 |
| CC(NCc1ccccc1)c1nc2ccccc2c(=O)n1-c1ccc(Cl)cc1 (stereo not drawn) [RU-0072535] | < 25 | – |
| COCCCN(CC(=O)N1CCc2sccc2C1COc1cccc(OC)c1)C(=O)Cc1ccccc1 (stereo not drawn) [RU-0036264] | < 25 | – |
| CCN(CC)C(=O)Oc1ccc2c(ccn2Cc2cccc(C)c2)c1NC(=O)[C@H](C)OC(C)=O [RU-0075468] | 26 to 50 | < 0.1 |
| COC(=O)C(Cc1ccccc1)NC(=O)C1CC1(c1ccccc1)c1ccccc1 (stereo not drawn) [RU-0028029] | 26 to 50 | – |
| COc1ccc(C(=O)c2ccccc2)c(O)c1O [RU-0001617] | 51 to 74 | < 0.1 |
| COc1cc(OC)cc(C2NC(=O)N(C)C3=C2C(=O)N(C2CCCCC2)C3)c1 (stereo not drawn) [RU-0047750] | > 75 | < 0.1 |
| CN(Cc1ccccc1)C(=O)CCC1CCN(C(=O)CCOc2ccccc2)CC1 [RU-0028727] | 51 to 74 | > 1 |
| COCCNC(=O)c1ccc(CSc2nnc(-c3ccc(C)cc3)n2-c2ccccc2F)cc1 [RU-0051652] | 26 to 50 | – |
| Cc1cc(C)c2c(c1C(=O)N1CCC3(CC1)C(=O)NCN3c1ccccc1)CC(C)(C)C2=O [RU-0025771] | 26 to 50 | – |
| CCOc1ccccc1C(=O)NNC(=O)COc1cc(C)cc(C)c1 [RU-0023245] | 26 to 50 | > 1 |
| CCOC(=O)C(c1ccc(OC)c(OC)c1)C1C=CC(NC(=O)c2ccc3c(c2)OCO3)C1 (stereo not drawn) [RU-0049030] | 26 to 50 | – |
| COc1ccccc1N1CCN(C(=O)c2cc3n(n2)CCN(Cc2c(F)cccc2Cl)C3=O)CC1 [RU-0043595] | < 25 | – |
| CCCCc1nc(CN2CCc3c([nH]c4ccccc34)C2c2cccc(OC)c2OC)c[nH]1 (stereo not drawn) [RU-0031879] | < 25 | – |
| CCOC(=O)C(c1cccc(OC)c1)C1C=CC(NC(=O)c2cccs2)C1 (stereo not drawn) [RU-0074560] | < 25 | – |
| COCCCN(CC(=O)N1CCc2sccc2C1c1ccc(OC)cc1)C(=O)C(C)(C)CCl (stereo not drawn) [RU-0069950] | > 75 | < 0.1 |
| COc1ccc(N2CCN(C(=O)C3CC=CCC3C(=O)NC(c3ccccc3)c3ccccn3)CC2)cc1 (stereo not drawn) [RU-0026507] | < 25 | – |
| COCCCN(CC(=O)N1CCc2sccc2C1COc1cccc(OC)c1)C(=O)c1ccccc1OC (stereo not drawn) [RU-0036294] | 51 to 74 | > 1 |
| Cc1ccc(-n2nc(C)c(CCC(=O)N3CCc4ccccc4C3)c2C)cc1Cl [RU-0026074] | 26 to 50 | – |
| C=C[C@@](C)(O)CCC1C(=C)CCC2[C@@](C)(CO)CCC[C@]12C (stereo partly drawn) [RU-0001327] | 51 to 74 | > 1 |
| CC(NC(=O)c1cc2n(n1)CCN(Cc1c(Cl)cccc1Cl)C2=O)c1ccccc1 (stereo not drawn) [RU-0045115] | < 25 | – |
| COc1ccc(-c2nnc(SCc3ccc(C#N)cc3)n2-c2ccc(C)cc2)cc1 [RU-0046426] | 26 to 50 | – |
| Cc1ccc(CN(CCc2ccccc2)C(=O)CN(C(=O)NC(C)(C)C)C(C)C)o1 [RU-0072008] | > 75 | < 0.1 |
| O=C1CN(S(=O)(=O)c2c(F)cc(F)cc2F)CC2c3cccc(F)c3CCN12 (stereo not drawn) [RU-0076832] | 26 to 50 | – |
| COCCN(Cc1cc(Cl)ccc1OS(=O)(=O)c1ccc(F)cc1)C(=O)C1CCC1 [RU-0035287] | < 25 | – |
| COc1nc(NC(C)C)nc(NC(C)C)n1 [RU-0001534] | < 25 | – |
| COc1nc(OCC#N)nc(N2CCCCC2)n1 [RU-0006256] | 51 to 74 | > 1 |
| CN(C)c1nc(N(C)C)nc(N(C)C)n1 [RU-0000619] | < 25 | – |
| COc1ccc(N2CCN(C(=O)C3CC=CCC3C(=O)NCCCCc3ccccc3)CC2)cc1 (stereo not drawn) [RU-0026167] | 26 to 50 | – |
